The term GI50 denotes the concentration giving 50% growth inhibition.

Here are results for five molecules from ChEMBL document CHEMBL3102823, “Tetramic acid analogues produced by coculture of Saccharopolyspora erythraea with Fusarium pallidoroseum” (2014).

In one assay the test system is Staphylococcus aureus. The experiment in a line: Antibacterial activity against Staphylococcus aureus by Kirby-Bauer disk diffusion assay. The assay is classed as functional. (A growth-free zone around the sample is the usual read-out of agar diffusion tests.)
In the next assay the test system is NCI60. Nature of the assay: (§1) Cytotoxicity against human NCI60 cells assessed as growth inhibition by SRB assay. The assay is classed as functional.
Assay [1] deals with Saccharopolyspora erythraea. Nature of the assay: Antibacterial activity against Saccharopolyspora erythraea by Kirby-Bauer disk diffusion assay.
The next assay has as its system CCRF-CEM. The experiment in a line: Cytotoxicity against human CCRF-CEM cells assessed as growth inhibition by SRB assay. The assay is classed as functional. A general note: In SRB staining, fixed cells bind dye roughly in proportion to their protein.
Assay [2] can be described thus: as §1. The class given is functional.

Activity calls are given as the source filed them. The rule behind the calls is not given here.

As for `C/C=C/[C@@H]1C=C[C@@H]2C[C@H](C)CC[C@H]2[C@]1(C)/C(O)=C1/C(=O)[C@H](CO)N(C)C1=O`, the values for the MIC (with Staphylococcus aureus; in assay [1]) were <1.25 µg and 2.5 µg, respectively. Moreover, in the assay on NCI60, the “growth inhibition (GI)” value was “Active”. For the same molecule, in the assay on CCRF-CEM, the GI50 came out at 0.144 µM.

As to `C/C=C/[C@@H]1C=C[C@@H]2C[C@@](C)(O)CC[C@H]2[C@]1(C)C(=O)C1=C(O)[C@H](CO)N(C)C1=O`, the “%max” value in the assay on Staphylococcus aureus is “inactive”. For the same molecule, the GI50 in assay [2] was > 20 µM. Further, the outcome in assay [1] was inactive.

Consider `C/C=C/[C@@H]1C=C[C@@H]2C[C@H](CO)CC[C@H]2[C@]1(C)C(=O)C1=C(O)[C@H](CO)NC1=O`, for which the result (with Staphylococcus aureus; in assay [1]) was inactive. Further, the GI50 in assay [2] was > 20 µM.

Consider `C/C=C/C1C=C[C@@H]2C[C@H](CO)CC[C@H]2[C@]1(C)C(=O)C1=C(O)[C@H](CO)N(C)C1=O` (some centres undefined), for which the GI50 in assay [2] was > 20 µM.

As to `CN1C(=O)C(C(=O)[C@@]2(C)[C@@H]3CC[C@@H](CO)C[C@H]3C=C[C@H]2/C=C/CO)=C(O)C1CO` (mixture of isomers), the outcome (with Staphylococcus aureus; in assay [1]) was inactive. Moreover, the GI50 in assay [2] is > 20 µM.
